9 compounds from ChEMBL document CHEMBL5291721, “A preclinical secondary pharmacology resource illuminates target-adverse drug reaction associations of marketed drugs” (Nat Commun, 2023) can be followed below.

Molecules are shown by their SMILES.

Test [1] concerns the target Bile salt export pump (Homo sapiens, UniProt O95342). It is filed as functional.
The target of test [2] is T1, Alpha-2A adrenergic receptor (Homo sapiens, UniProt P08913).
T1 sequence (P08913 whole entry): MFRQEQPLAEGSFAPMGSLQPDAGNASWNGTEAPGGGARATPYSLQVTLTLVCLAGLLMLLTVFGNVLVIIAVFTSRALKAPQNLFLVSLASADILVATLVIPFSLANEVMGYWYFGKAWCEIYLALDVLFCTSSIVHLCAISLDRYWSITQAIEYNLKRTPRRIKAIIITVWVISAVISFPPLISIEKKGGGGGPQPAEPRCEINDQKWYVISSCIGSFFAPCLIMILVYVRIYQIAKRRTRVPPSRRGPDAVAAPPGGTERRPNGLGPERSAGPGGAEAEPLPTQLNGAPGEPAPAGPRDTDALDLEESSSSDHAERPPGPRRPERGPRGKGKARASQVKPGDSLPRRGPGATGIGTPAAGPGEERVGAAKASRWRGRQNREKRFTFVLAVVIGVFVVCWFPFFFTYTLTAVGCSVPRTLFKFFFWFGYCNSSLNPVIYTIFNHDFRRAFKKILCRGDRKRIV

Test [3] has as its target Prostaglandin G/H synthase 1 (Homo sapiens, UniProt P23219). The format is functional.
Test [4] concerns the target T2, Thromboxane A2 receptor (Homo sapiens, UniProt P21731).
T2 sequence (P21731 whole entry): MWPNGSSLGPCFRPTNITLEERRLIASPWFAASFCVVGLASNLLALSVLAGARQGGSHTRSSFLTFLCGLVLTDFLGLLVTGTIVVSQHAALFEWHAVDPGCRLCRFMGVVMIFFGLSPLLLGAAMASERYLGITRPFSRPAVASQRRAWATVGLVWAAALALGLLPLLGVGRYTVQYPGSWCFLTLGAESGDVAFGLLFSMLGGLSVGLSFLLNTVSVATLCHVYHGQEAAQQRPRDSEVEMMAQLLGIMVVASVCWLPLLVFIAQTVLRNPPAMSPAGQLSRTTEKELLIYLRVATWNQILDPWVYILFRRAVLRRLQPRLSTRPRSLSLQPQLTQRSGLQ
It is filed as functional, cell-based.

For test [5], the target named is Acetylcholinesterase (Homo sapiens, UniProt P22303). The format is functional.
Test [6] addresses T2, Thromboxane A2 receptor. It is filed as functional, cell-based. The source holds these as a separate data set.
Test [7] addresses 3',5'-cyclic-AMP phosphodiesterase 4A (Homo sapiens, UniProt P27815). It is filed as functional.
Test [8] concerns the target Sodium-dependent noradrenaline transporter (Homo sapiens, UniProt P23975).
Test [9] deals with T3, 5-hydroxytryptamine receptor 1A (Homo sapiens, UniProt P08908).
T3 sequence (P08908 whole entry): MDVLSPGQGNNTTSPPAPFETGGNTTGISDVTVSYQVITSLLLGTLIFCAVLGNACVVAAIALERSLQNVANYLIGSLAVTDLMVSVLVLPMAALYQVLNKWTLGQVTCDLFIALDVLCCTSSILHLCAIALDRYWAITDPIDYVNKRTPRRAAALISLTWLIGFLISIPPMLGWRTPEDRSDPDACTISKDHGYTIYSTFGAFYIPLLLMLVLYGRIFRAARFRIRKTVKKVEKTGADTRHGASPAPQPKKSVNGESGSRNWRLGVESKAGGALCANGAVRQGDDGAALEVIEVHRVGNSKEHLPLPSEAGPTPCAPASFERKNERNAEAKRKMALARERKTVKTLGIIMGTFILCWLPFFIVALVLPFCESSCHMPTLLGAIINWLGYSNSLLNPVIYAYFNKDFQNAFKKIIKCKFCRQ

In test [10] the target is D(3) dopamine receptor (Homo sapiens, UniProt P35462).
Test [11] has as its target T4, Progesterone receptor (Homo sapiens, UniProt P06401).
T4 sequence (P06401 whole entry): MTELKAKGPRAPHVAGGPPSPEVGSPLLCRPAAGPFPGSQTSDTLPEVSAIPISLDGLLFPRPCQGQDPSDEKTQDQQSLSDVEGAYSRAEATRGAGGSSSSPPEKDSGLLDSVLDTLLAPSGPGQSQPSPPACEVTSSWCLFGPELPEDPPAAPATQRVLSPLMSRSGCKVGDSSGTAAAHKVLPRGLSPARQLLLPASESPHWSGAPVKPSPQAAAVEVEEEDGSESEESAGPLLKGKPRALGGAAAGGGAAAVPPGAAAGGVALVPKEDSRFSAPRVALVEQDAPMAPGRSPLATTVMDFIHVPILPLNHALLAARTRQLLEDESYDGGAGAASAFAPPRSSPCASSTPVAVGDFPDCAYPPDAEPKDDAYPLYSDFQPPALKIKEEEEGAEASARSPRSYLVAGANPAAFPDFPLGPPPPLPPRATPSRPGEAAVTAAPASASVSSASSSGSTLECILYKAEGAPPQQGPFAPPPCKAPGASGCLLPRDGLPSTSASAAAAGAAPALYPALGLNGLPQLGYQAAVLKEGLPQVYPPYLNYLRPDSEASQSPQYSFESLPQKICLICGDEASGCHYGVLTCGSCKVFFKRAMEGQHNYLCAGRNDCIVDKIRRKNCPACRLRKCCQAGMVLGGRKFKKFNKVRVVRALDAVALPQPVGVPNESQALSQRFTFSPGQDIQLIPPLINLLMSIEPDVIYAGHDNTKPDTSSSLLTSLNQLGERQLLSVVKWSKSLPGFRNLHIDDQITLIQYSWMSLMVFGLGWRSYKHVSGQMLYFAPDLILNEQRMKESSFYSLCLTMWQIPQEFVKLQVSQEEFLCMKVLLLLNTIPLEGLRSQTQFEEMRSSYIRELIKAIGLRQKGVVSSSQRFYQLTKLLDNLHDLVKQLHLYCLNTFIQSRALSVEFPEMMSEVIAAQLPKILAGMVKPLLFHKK

Test [12] concerns the target Histamine H3 receptor (Homo sapiens, UniProt Q9Y5N1).
Test [13] deals with 5-hydroxytryptamine receptor 2B (Homo sapiens, UniProt P41595). It is filed as functional, cell-based.
For test [14], the target named is cGMP-inhibited 3',5'-cyclic phosphodiesterase 3A (Homo sapiens, UniProt Q14432). It is filed as functional.
Test [15] addresses D(1A) dopamine receptor (Homo sapiens, UniProt P21728).
Further: assay procedure not described here.

Acetylcholinesterase, sequence (P22303 whole entry): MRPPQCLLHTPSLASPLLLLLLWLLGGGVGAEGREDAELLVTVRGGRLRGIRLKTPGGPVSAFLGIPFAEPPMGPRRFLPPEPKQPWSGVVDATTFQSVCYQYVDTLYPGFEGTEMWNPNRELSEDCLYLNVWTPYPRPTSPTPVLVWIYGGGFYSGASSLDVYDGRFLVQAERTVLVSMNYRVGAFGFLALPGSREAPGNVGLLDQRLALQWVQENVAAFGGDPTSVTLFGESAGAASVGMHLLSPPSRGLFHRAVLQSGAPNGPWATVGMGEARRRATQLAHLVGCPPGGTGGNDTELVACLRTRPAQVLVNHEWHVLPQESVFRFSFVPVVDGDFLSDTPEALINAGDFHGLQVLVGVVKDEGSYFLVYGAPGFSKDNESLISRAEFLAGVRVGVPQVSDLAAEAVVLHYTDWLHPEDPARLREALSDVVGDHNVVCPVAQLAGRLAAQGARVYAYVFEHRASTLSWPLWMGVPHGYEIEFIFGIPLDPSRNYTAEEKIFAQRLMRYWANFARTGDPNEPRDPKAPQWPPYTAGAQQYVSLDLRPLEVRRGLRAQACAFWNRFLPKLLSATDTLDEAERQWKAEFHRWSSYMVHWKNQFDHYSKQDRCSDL
cGMP-inhibited 3',5'-cyclic phosphodiesterase 3A, sequence (Q14432 whole entry): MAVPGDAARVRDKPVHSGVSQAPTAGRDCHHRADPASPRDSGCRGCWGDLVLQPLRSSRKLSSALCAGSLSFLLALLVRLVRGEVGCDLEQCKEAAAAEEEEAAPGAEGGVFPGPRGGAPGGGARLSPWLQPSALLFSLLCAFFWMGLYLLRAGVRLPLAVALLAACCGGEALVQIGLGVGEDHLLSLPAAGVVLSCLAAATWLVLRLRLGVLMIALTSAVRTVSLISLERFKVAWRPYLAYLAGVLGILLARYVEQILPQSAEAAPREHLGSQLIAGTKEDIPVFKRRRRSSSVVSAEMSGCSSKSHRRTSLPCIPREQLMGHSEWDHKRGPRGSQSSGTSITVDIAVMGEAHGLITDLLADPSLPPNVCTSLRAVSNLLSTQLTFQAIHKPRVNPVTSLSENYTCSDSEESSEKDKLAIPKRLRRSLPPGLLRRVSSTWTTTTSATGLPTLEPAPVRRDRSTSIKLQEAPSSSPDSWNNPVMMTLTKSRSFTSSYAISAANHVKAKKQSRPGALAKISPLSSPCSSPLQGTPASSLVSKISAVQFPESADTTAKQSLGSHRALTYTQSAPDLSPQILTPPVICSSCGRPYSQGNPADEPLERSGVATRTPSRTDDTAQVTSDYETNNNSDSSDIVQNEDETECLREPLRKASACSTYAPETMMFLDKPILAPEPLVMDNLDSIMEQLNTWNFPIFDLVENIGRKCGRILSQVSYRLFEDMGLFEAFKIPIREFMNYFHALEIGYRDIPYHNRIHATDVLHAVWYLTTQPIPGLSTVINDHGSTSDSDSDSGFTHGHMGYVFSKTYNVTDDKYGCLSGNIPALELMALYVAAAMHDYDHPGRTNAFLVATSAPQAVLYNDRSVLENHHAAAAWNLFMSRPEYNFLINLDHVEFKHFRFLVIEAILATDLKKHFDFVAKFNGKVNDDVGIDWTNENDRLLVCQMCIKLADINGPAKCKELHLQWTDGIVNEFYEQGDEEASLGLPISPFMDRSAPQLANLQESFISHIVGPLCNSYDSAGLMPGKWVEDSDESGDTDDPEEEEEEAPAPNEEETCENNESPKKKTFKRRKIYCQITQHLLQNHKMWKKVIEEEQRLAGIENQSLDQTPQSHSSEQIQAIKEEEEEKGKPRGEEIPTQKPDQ
Bile salt export pump, sequence (O95342 whole entry): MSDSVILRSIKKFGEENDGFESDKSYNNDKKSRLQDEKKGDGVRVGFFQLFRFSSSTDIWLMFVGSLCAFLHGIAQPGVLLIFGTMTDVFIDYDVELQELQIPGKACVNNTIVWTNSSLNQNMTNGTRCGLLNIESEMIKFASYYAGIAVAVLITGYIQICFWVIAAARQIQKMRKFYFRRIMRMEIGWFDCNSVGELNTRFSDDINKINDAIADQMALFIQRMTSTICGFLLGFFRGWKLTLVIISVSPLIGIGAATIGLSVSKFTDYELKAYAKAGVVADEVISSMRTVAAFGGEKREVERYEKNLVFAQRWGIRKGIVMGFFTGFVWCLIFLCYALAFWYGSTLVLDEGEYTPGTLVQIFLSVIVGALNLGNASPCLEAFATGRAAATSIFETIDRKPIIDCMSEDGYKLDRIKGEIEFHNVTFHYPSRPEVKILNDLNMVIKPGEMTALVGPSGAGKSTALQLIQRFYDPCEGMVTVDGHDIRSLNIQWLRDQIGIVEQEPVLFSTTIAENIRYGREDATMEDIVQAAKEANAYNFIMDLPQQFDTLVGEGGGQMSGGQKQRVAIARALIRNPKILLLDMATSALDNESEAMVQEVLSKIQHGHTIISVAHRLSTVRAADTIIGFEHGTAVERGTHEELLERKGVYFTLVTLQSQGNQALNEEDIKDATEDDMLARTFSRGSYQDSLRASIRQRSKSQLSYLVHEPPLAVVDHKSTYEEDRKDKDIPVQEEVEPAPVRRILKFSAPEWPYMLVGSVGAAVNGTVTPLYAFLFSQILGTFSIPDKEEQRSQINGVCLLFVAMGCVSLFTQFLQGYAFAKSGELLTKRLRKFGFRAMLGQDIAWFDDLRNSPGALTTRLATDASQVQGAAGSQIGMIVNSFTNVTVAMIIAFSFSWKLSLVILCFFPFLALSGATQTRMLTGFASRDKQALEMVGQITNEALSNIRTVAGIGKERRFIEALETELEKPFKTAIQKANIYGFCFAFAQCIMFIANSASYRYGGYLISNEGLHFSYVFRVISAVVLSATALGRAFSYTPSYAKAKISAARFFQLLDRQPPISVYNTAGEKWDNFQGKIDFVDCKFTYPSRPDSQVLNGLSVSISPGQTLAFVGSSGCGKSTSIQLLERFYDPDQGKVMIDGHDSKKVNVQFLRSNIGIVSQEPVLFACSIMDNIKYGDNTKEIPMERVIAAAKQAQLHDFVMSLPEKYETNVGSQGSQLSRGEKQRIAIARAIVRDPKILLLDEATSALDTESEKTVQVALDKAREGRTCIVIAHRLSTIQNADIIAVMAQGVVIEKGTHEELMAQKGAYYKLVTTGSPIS
Histamine H3 receptor, sequence (Q9Y5N1 whole entry): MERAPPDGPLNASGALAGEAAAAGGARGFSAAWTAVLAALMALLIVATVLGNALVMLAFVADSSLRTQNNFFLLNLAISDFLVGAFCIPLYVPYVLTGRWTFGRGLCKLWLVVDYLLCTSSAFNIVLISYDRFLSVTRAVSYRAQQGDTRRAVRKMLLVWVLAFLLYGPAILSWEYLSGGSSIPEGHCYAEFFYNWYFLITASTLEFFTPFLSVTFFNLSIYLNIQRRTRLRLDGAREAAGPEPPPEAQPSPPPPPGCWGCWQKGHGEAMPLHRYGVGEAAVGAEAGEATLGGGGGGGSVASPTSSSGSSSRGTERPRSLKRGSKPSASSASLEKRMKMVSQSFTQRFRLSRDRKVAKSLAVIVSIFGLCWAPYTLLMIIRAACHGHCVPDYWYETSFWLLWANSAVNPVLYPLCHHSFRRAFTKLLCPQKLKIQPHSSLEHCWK
3',5'-cyclic-AMP phosphodiesterase 4A, sequence (P27815 whole entry): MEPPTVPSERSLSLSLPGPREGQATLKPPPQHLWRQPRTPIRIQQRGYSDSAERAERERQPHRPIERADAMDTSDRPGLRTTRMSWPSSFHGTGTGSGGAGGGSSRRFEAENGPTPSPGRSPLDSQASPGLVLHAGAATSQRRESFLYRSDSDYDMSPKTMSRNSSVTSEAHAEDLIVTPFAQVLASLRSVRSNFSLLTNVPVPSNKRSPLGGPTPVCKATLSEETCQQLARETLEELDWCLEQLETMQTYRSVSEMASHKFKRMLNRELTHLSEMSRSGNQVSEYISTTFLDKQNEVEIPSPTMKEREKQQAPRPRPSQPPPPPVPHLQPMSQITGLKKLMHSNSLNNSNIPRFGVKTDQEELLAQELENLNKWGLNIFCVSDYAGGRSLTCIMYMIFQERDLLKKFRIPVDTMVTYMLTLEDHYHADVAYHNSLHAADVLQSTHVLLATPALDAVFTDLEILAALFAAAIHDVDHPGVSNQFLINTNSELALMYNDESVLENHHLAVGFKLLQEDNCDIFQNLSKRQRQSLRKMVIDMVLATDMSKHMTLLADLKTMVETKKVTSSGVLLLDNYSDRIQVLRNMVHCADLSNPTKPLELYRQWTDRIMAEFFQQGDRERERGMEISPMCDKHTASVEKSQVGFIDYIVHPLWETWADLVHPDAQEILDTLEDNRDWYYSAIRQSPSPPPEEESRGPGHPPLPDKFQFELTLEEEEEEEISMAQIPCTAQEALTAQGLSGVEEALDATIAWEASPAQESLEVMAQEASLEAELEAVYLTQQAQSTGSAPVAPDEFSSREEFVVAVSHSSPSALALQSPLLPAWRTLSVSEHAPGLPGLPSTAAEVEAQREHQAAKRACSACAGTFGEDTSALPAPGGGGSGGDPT
Sodium-dependent noradrenaline transporter, sequence (P23975 whole entry): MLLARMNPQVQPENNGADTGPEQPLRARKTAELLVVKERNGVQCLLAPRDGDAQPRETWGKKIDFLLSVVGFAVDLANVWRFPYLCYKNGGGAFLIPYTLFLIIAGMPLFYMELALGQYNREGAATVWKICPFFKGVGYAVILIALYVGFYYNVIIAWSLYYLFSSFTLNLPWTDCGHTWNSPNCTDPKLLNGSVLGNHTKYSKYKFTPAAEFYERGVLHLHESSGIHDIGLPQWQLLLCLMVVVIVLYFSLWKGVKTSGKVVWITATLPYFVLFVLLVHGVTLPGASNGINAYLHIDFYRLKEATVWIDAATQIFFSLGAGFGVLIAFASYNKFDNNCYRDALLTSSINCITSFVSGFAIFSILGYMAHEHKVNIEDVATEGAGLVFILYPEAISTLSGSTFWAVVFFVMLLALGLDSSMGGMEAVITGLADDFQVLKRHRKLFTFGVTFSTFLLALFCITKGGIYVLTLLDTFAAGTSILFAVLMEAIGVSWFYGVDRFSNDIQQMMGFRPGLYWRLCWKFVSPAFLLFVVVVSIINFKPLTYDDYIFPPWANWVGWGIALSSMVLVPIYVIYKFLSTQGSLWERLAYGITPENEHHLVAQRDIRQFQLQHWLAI

Consider `O=C(O)COc1ccc(C(=O)c2cccs2)c(Cl)c1Cl`, for which the AC50 is over 300 µM in test [1]; over 30 µM in test [2]; over 30 µM in test [3]; over 30 µM in test [4]; over 30 µM in test [5]; over 30 µM in test [6]. The AC50 in [7], in [8], in test [9], in [10], in [11] and in test [12] was over 30 µM in each case. The AC50 in test [13], in [14] and in test [15] was over 30 µM throughout.
Consider `CCCN(CCC)C(=O)Cc1c(-c2ccc(Cl)cc2)nc2ccc(Cl)cn12` [ALPIDEM], for which the concentration at half-maximal activity (AC50) in [1] was 4.8 µM; in test [2], over 30 µM; in [3] it was over 30 µM; in test [4] it was over 30 µM; in test [5] it was over 30 µM; in [6] it was over 10 µM. Moreover, the AC50 is over 30 µM in test [7]; over 30 µM in test [8]; over 30 µM in test [9]; 27.8 µM in test [10]; over 30 µM in [11]; over 30 µM in test [12]. In addition, the AC50 in [13], in [14] and in [15] was over 30 µM throughout.
Take `COc1cc2nccc(Oc3ccc(NC(=O)C4(C(=O)Nc5ccc(F)cc5)CC4)cc3)c2cc1OC` [CABOZANTINIB]: the AC50 in test [1] was 8.8 µM; in test [2], over 30 µM; in test [3], over 30 µM; in test [4], over 30 µM; in test [5], over 30 µM; in test [6], 17.5 µM. The concentration at half-maximal activity (AC50) in test [7] was over 30 µM; in test [8] it was over 30 µM; in test [9], over 30 µM; in test [10] it was over 30 µM; in test [11], over 10 µM; in [12], over 30 µM. Besides, the AC50 was over 30 µM in [13], 27.9 µM in [14] and 4.42 µM in test [15].
With `OC[C@H]1O[C@@H](c2ccc(Cl)c(Cc3ccc(O[C@H]4CCOC4)cc3)c2)[C@H](O)[C@@H](O)[C@@H]1O` [EMPAGLIFLOZIN], the half-maximal activity concentration (AC50) is over 300 µM in [1]; over 30 µM in test [2]; over 30 µM in test [3]; over 30 µM in test [4]; over 30 µM in test [5]; over 30 µM in test [6]. The AC50 in test [7], in test [8], in [9], in test [10], in [11] and in [12] was over 30 µM in each case. Further, the AC50 in test [13], in test [14] and in [15] was over 30 µM each time.
In the case of `CC(C)Cc1ccc(C(C)C(=O)O)cc1` (stereo not given) [IBUPROFEN], the AC50 was over 300 µM in test [1]; over 30 µM in [2]; over 30 µM in test [4]; over 30 µM in test [5]; over 30 µM in [6]; over 30 µM in test [7]. Further, the AC50 in test [8], in test [9], in [10], in [11], in [12] and in test [13] was over 30 µM throughout. Further, the AC50 in test [14] and in test [15] was over 30 µM in each case.
On to `C[C@@H]1C[C@H]2[C@@H]3CCC4=CC(=O)C=C[C@]4(C)[C@@]3(Cl)[C@@H](O)C[C@]2(C)[C@@]1(OC(=O)c1ccco1)C(=O)CCl` [MOMETASONE FUROATE], for which the AC50 in test [1] is 2.4 µM; in [2] it was over 30 µM; in [3] it was 13.7 µM; in test [4], over 30 µM; in test [5], over 30 µM; in test [6], over 30 µM. For the same compound, the half-maximal activity concentration (AC50) in test [7], in [8], in test [9], in test [10], in [12] and in test [13] was over 30 µM in each case. Further, the AC50 in test [14] and in test [15] was over 30 µM each time.
For the compound `CN1C(C(=O)Nc2ccccn2)=C(O)c2ccccc2S1(=O)=O` [PIROXICAM], the AC50 was 200 µM in test [1]; over 30 µM in test [2]; over 30 µM in [4]; over 30 µM in test [5]; over 30 µM in test [6]; over 30 µM in [7]. For the same compound, the concentration at half-maximal activity (AC50) in test [8], in [9], in test [10], in test [11], in test [12] and in [13] was over 30 µM in each case. The AC50 in [14] and in [15] was over 30 µM throughout.
With `COc1cc2nc(N3CCN(C(=O)C4CCCO4)CC3)nc(N)c2cc1OC` (stereo not given) [TERAZOSIN], the AC50 in test [1] is over 300 µM; in [2], 11.8 µM; in [3], over 30 µM; in test [4], over 30 µM; in test [5], 22.9 µM; in [6] it was over 30 µM. Moreover, the AC50 in test [7], in test [8], in test [9], in [10], in [12] and in test [13] was over 30 µM throughout. Besides, the AC50 in test [14] was over 30 µM; in test [15], 27.8 µM.
Turning to `Cc1onc(-c2ccccc2)c1-c1ccc(S(N)(=O)=O)cc1` [VALDECOXIB], the AC50 in test [1] is 240 µM; in test [2], over 30 µM; in test [4], over 30 µM; in test [5] it was over 30 µM; in test [6], over 30 µM; in [7], 18.7 µM. Also, the AC50 in test [8] is 2.31 µM; in test [9], over 30 µM; in [10], over 30 µM; in test [11] it was over 30 µM; in [12], over 30 µM; in [13], over 30 µM. In addition, the AC50 in test [14] and in test [15] was over 30 µM throughout.

One may read the AC50 as the midpoint of the concentration-response curve, whichever way the signal moves.
